Where two headings read alike, the source gives them in different places.
Key:
human CYP11B2 = target: T1, human CYP11B2 (Homo sapiens, UniProt P19099); experiment: Inhibition of CYP11B2 in V79 MZh cells expressing the enzyme; format: cell-based; conditions: for SF: selectivity factor = IC50 CYP11B1/IC50 CYP11B2: CYP11B2 over CYP11B1; for IC50: substrate deoxycorticosterone, 100 nM
T1 construct: expressed in transfected cells; host or cells: V79MZh cells
T1 sequence (P19099 25-503): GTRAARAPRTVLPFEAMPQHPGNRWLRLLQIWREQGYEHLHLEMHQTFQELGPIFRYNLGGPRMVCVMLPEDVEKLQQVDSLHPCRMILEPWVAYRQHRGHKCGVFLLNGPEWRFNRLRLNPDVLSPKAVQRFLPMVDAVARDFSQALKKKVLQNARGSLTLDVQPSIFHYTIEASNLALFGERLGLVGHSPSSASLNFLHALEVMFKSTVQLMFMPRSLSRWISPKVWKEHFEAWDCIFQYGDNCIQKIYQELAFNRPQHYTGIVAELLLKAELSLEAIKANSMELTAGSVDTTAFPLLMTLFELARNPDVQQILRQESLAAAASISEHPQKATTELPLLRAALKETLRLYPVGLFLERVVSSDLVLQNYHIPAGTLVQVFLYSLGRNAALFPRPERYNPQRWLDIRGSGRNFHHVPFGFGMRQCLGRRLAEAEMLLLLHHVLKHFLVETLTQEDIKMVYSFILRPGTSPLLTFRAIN
Protocol: (§1) V79MZh cells expressing human CYP11B1 [45] or CYP11B2 [44] were incubated with [^14C]-11-deoxycorticosterone as substrate. The assay was performed as previously described.

human CYP11B1 = target: T2, human CYP11B1 (Homo sapiens, UniProt P15538); experiment: Inhibition of CYP11B1 in V79 MZh cells expressing the enzyme; format: cell-based
T2 construct: expressed in transfected cells; host or cells: V79MZh cells
T2 sequence (P15538 25-503): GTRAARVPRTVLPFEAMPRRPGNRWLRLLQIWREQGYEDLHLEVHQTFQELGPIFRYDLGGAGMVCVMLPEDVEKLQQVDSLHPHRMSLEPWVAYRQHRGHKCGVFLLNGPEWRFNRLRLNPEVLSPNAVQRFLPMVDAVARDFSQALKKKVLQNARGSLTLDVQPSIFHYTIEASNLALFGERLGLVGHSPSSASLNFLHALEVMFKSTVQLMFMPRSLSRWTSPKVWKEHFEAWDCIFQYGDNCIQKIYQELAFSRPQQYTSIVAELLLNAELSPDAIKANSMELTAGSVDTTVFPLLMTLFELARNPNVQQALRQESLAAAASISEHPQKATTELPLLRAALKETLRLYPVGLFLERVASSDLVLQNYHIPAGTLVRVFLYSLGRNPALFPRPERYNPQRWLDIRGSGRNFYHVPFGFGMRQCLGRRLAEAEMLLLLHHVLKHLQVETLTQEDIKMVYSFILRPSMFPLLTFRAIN
Protocol: as §1

[1] = target: T3, human hepatic enzyme CYP1A2 (Homo sapiens, UniProt P05177); experiment: Inhibition of human hepatic CYP1A2, recombinant enzyme (Supersomes); format: biochemical
T3 sequence (P05177 1-516): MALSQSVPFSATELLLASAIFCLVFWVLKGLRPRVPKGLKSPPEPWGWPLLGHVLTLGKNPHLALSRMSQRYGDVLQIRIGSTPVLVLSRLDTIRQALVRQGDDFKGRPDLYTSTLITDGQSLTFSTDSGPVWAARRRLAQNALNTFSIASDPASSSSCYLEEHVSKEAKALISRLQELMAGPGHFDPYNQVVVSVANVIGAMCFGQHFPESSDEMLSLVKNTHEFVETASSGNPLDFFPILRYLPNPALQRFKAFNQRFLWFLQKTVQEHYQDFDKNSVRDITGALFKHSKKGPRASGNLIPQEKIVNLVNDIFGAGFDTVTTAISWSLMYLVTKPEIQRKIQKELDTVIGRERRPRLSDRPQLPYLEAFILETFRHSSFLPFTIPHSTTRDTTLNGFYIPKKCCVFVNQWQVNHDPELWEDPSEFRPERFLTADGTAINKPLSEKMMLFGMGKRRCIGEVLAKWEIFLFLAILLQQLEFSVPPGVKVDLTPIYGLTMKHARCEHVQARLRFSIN

[2] = Hamster fibroblasts (V79 MZh) expressing human CYP11B2, read-out: 11B2 IC50
[3] = Hamster fibroblasts (V79 MZh) expressing human CYP11B1, substrate deoxycorticosterone, 100 nM, read-out: 11B1 IC50
[4] = recombinantly expressed enzyme from baculovirus infected insect microsomes (Supersomes)

SMILES | SF: selectivity factor = IC50 CYP11B1/IC50 CYP11B2 (human CYP11B2) | IC50 (human CYP11B2; [2]) [nM] | IC50 (human CYP11B1; [3]) [nM] | CYP1A2 inhibition at 2 µM [1] | IC50 [1, 4] [nM] | melting point [°C] | IC50 ([1]; recombinant CYP1A2) [nM] | IC50 (human CYP11B2; 11B2 IC50, Hamster fibroblasts (V79 MZh) expressing human CYP11B2) [nM] | IC50 (human CYP11B1) [nM]
CC12CCC(c3cccnc3)=CC1=CCCC2=O (racemic) [Compound 17, (±)-8a-Methyl-6-pyridin-3-yl-3,7,8,8a-tetrahydro-2H-naphthalen-1-one] | 2 | 462 ± 36 | 1020 ± 78 | – | – | – | – | – | –
c1cncc(C2CCC3CCCCC3C2)c1 (stereo not drawn) [Compound 1, 3-(Decahydro-naphthalen-2-yl)-pyridine] | 4 | 157 ± 14 | 611 ± 34 | – | – | – | – | – | –
O=C1CC2C=C(c3cccnc3)CC2C1 (stereo not drawn) [Compound 2, 5-Pyridin-3-yl-3,3a,4,6a-tetrahydro-1H-pentalen-2-one] | 8 | 34 ± 5 | 282 ± 17 | no inhibition | > 100000 | – | – | – | –
O=C1CC2CC(c3cccnc3)CC2C1 (stereo not drawn) [Compound 3, 5-Pyridin-3-yl-hexahydro-pentalen-2-one] | – | 258 ± 22 | 306 ± 25 | – | – | – | – | – | –
C=C1CC2C=C(c3cccnc3)CC2C1 (stereo not drawn) [Compound 4, 3-(5-Methylidene-1,3a,4,5,6,6a-hexahydro-pentalen-2-yl)-pyridine] | 34 | 6 ± 2 | 205 ± 12 | – | 2170 ± 97 | – | – | – | –
OC1CC2C=C(c3cccnc3)CC2C1 (stereo not drawn) [Compound 5, 5-Pyridin-3-yl-1,2,3,3a,4,6a-hexahydro-pentalen-2-ol] | 3 | 225 ± 21 | 663 ± 27 | – | – | 110 to 112 | – | – | –
OC1CC2CC(c3cccnc3)CC2C1 (stereo not drawn) [Compound 6, 5-Pyridin-3-yl-octahydro-pentalen-2-ol] | 0.4 | 347 ± 35 | 133 ± 29 | – | – | – | – | – | –
O=C1CCC=C(c2cccnc2)CCC1 [Compound 7, 5-Pyridin-3-yl-cyclooct-4-enone] | 4 | 205 ± 16 | 851 ± 58 | – | – | – | – | – | –
O=C1CCCC(c2cccnc2)CCC1 [Compound 8, 5-Pyridin-3-yl-cyclooctanone] | 3 | 443 ± 36 | 1350 ± 79 | – | – | – | – | – | –
OC1CCC=C(c2cccnc2)CCC1 (stereo not drawn) [Compound 9, 5-Pyridin-3-yl-cyclooct-4-enol] | 2 | 141 ± 11 | 348 ± 25 | – | – | – | – | – | –
OC1CCCC(c2cccnc2)CCC1 (stereo not drawn) [Compound 10, (endo/exo)-5-Pyridin-3-yl-cyclooctanol] | – | 294 ± 23 | 246 ± 36 | – | – | – | – | – | –
C1=C(c2cccnc2)CCCCCC1 [Compound 11, 3-Cyclooct-1-enyl-pyridine] | 2 | 81 ± 7 | 195 ± 15 | – | > 100000 | – | – | – | –
c1cncc(C2CCCCCCC2)c1 [Compound 12, 3-Cyclooctyl-pyridine] | 50 | 21 ± 5 | 1050 ± 67 | no inhibition | > 100000 | – | – | – | –
C1=C(c2cccnc2)CCCCCCCC1 [Compound 13, 3-Cyclodec-1-enyl-pyridine] | 12 | 21 ± 3 | 258 ± 16 | no inhibition | > 100000 | – | – | – | –
c1cncc(C2CCCCCCCCC2)c1 [Compound 14, 3-Cyclodecyl-pyridine] | 40 | 22 ± 2 | 872 ± 79 | – | > 100000 | – | – | – | –
C1=C(c2cccnc2)CCCCCCCCCC1 [Compound 15, 3-Cyclododec-1-enyl-pyridine] | – | 1170 ± 97 | > 10000 | – | – | – | – | – | –
c1cncc(C2CCCCCCCCCCC2)c1 [Compound 16, 3-Cyclododecyl-pyridine] | 3 | 636 ± 32 | 1770 ± 56 | – | – | – | – | – | –
C1=C(c2cccnc2)C2CCC1C2 (stereo not drawn) [Compound 18, 3-Bicyclo[2.2.1]hept-2-en-2-yl-pyridine] | 3 | 889 ± 57 | 2130 ± 113 | – | – | – | – | – | –
c1cncc(C2CC3CCC2C3)c1 (stereo not drawn) [Compound 19, (endo/exo)-3-Bicyclo[2.2.1]hept-2-yl-pyridine] | – | 99 ± 21 | 137 ± 12 | – | 44430 ± 388 | – | 44000 | – | –
CN1C2C=C(c3cccnc3)CC1CC2 (stereo not drawn) [Compound 20, 8-Methyl-3-pyridin-3-yl-8-aza-bicyclo[3.2.1]oct-2-ene] | – | 2440 ± 88 | > 5000 | – | – | – | – | – | –
CN1C2CCC1CC(c1cccnc1)C2 (stereo not drawn) [Compound 21, (endo/exo)-8-Methyl-3-pyridin-3-yl-8-aza-bicyclo[3.2.1]octane] | – | – | – | – | – | – | – | 2830 ± 135 | > 10000
COc1ccc2cc(-c3cccnc3)ccc2c1 [I, reference compound] | – | – | – | – | 41 ± 5 | – | – | – | –
COC1CCc2cc(-c3cccnc3)ccc2C1 (stereo not drawn) [II, reference compound] | 347 | 3 ± 1 | 1140 ± 78 | – | 440 ± 11 | – | – | – | –
COc1ccc2c(c1)CC(C)C(c1cccnc1)=C2 (stereo not drawn) [III, reference compound] | 79 | 3 ± 1 | 248 ± 19 | – | 741 ± 55 | – | – | – | –

From PMC3486838 (PLoS ONE, 2012)
